# Reference: patent publication US4609549A, “Biologically active substance from Islets-Activating Protein” (Kaken Pharmaceutical Co., Ltd., priority 1983, dated 1986)
# How the values were obtained:
# [1] = system: ddY mice; assay: Acute toxicity (LD50), intravenous; type: in vivo; details: i.v., ddY mice (male)
# Source text: (§1) The control is non-modified IAP.
# [2] = system: pertussis 18-323 strain (I-phase); assay: Infection prevention test (survival after intracerebral inoculation of live pertussis bacteria); type: in vivo, Bordetella pertussis (ddY mice, male); details: two weeks after inoculation
# Procedure: (ii) The IAP processed into toxoid with glutaraldehyde (hereinafter referred to as toxoid-processed IAP) used as the comparative example was prepared in the following precedures. To 0.1M phosphate buffer solution (containing 2M urea, pH 7.0) containing IAP (0.5 mg/ml) adjusted to pH 9.0 by adding 1N sodium hydroxide, was added a 25% aqueous solution of glutaraldehyde so that the final concentration of glutaraldehyde would become 0.05%. The mixed solution was reacted under stirring at room temperature for 22 hours. The resultant solution was then sufficiently dialyzed against a 0.1M phosphate buffer solution (containing 2M urea, pH 7.0) to obtain the toxoid-processed IAP.
# (iii) A toxoid-processed reductively methylated IAP was also similarly prepared by using a reductively methylated IAP solution in place of an IAP solution.
# There were prepared five kinds of the physiological saline solutions containing a dead pertussis vaccine (made by KAKEN PHARMACEUTICAL CO., LTD.), toxoid-processed IAP, toxoid-processed reductively methylated IAP, IAP and reductively methylated IAP, respectively, and 0.1 ml of each of these physiological saline solutions was administered into the peritoneal cavities of the ddY mice (male, 4 weeks old) (13 mice per one group). Two weeks after the administration, the live pertussis 18-323 strain (I-phase) bacteria were inoculated into the encephalon at a rate of 4×10^4cells/animal. […] Used as the control was a group of mice which were treated similarly by giving 0.1 ml of a physiological saline solution alone into the peritoneal cavity.
# [3] = system: leukocyte count; assay: Leukocytosis-promoting activity (ΔLP activity) one day after administration; details: 12 μg/kg i.v., male Wistar rats
# Procedure: V. Leukocytosis-promoting activity (ΔLP activity)
# Each sample is intravenously injected into male Wister rats (about 150 g body weight) at a rate of 12 μg/kg, and the leukocyte count is measured on a daily basis. The leukocyte increment is determined from the difference in leukocyte count between the sample-administered group and the control group.
# (§2) ΔLP activity=(leukocyte count in sample-administered
# (§3) group)-(leukocyte count in control group)
# The pharmacological activity, acute toxicity, and stability in an alkaline solution, of the resultant products obtained in the Examples were examined in the manners described above.
# as §1
# [4] = system: secretion of insulin; assay: Activity of promoting the secretion of insulin; type: in vivo, mammals
# Source text: The definition of the activity units used in the present invention is described in Japanese Patent Application Laying Open No. 96392/72 which corresponds to G.B. Patent No. 1,569,046.
# [5] = Stability of IAP (heat, moisture); type: physicochemical
# Procedure: (§4) The powder of IAP obtained by freeze-drying the aqueous dialysed and de-salted solution is non-deliquescent, and white or light brown in colour, and is soluble in water to the extent of 3 to 5 mg/ml at room temperature. […] When IAP is put into aqueous 6N hydrochloric acid solution, a precipitate white in colour separates out. Addition of sodium sulfate, dry ice plus acetone, ethanol, trichloroacetic acid, aqueous solution of zinc chloride, or aqueous solutions containing several other kinds of metal ions to an aqueous solution of IAP at 4° C., causes the aqueous solution to become turbid and a precipitate to settle out. When IAP is put into a mixture of water and chloroform or of water and n-butanol, IAP gathers on the interface of both liquids.
# In addition, when IAP is dissolved into aqueous 0.1M phosphate buffer solution of pH of 7.0 containing sodium chloride at 0.5M and the solution is subjected to dialysis against distilled water as the external liquid, the mixed solution becomes turbid once, however, with the progress of dialysis, the white turbidity disappears completely.
# [6] = Solubility; type: physicochemical; details: pyridine, 2-mercaptoethanol, aqueous sodium dodecylsulfate and cystine
# Procedure: as §4
# [7] = system: leukocyte count; assay: Stability in methylamine solution: change with time of ΔLP activity; type: in vivo, male Wistar rats; details: 3.44M methylamine solution (pH 9.5)
# Source text: as §2, §3
# (§5) The stability in an amine-containing alkaline solution of the modified IAP of the present invention and an IAP amidino derivative disclosed in Japanese Patent Application Laid-Open No. 129295/80 (Application No. 35877/79) was examined.
# [8] = Isoelectric point; type: physicochemical
# Source text: The isoelectric point of IAP determined by the method described in Wringley, C.W., "J. Chromatogr.", 36, 362-372 (1968) is pH 8.9±0.5.
# [9] = system: glucose tolerance; assay: Glucose tolerance; type: in vivo; details: mammals
# [10] = system: Epinephrine hyperglycemia; assay: Stability in methylamine solution: change with time of EpI activity; type: in vivo, male Wistar rats; details: 3.44M methylamine solution (pH 9.5)
# Procedure: (§6) Each sample is intravenously injected to the male Wistar rats (about 150 g body weight) at a dose of 12 μg/kg, and after sample injection, epinephrine is subcutaneously injected to the rats under fast on a daily basis. The difference between blood sugar level before epinephrine injection and that one hour after injection is compared with the difference in the control group to thereby determine the EpI activity (%).
# (§7) ΔGC : control group [(blood sugar level after epinephrine injection)-(blood sugar level before injection)]
# (§8) ΔGT : sample-administered group [(blood sugar level after epinephrine injection)-(blood sugar level before injection)] [formula]
# as §5
# [11] = system: Epinephrine hyperglycemia; assay: Epinephrine hyperglycemia inhibitory activity (EpI activity) one day after administration; type: in vivo; details: 12 μg/kg i.v., male Wistar rats
# Procedure: IV. Epinephrine hyperglycemia inhibitory activity (EpI activity)
# as §6, §7, §8, §1
substance,measurement,setting,value
IAP: Islets-Activating Protein obtained by the cultivation of suitable strain(s) of the microorganism Bordetella pertussis (Phase I or II),LD50,[1],0.215 mg/kg
same,Number of animals which survived/total number of animals tested,[2]; 0.04 μg/animal i.p.,6/13
same,Survival rate,[2]; 0.04 μg/animal i.p.,46%
same,Number of animals which survived/total number of animals tested,[2]; 0.2 μg/animal i.p.,8/13
same,Survival rate,[2]; 0.2 μg/animal i.p.,62%
same,Number of animals which survived/total number of animals tested,[2]; 1 μg/animal i.p.,3/13
same,Survival rate,[2]; 1 μg/animal i.p.,23%
same,ΔLP activity,[3],140.1 × 10^2 /mm^3
same,duration of insulin secretion promoting and glucose tolerance improving actions,[4]; after a single administration,several weeks to several months
same,activity of promoting the secretion of insulin,[4]; in vivo,not less than 193 unit/μg
same,deliquescence of freeze-dried powder,[5],non-deliquescent
same,stability of aqueous solution on heating,[5]; heated to 80° C. or higher,the solution becomes turbid white in colour
same,solubility in other solvents,[6],"soluble in pyridine, 2-mercaptoethanol and aqueous solution of sodium dodecylsulfate and of cystine"
same,ΔLP activity,[7]; treatment time 0 hr,144 × 10^2 /mm^3
same,ΔLP activity,[7]; treatment time 24 hr,141 × 10^2 /mm^3
same,ΔLP activity,[7]; treatment time 48 hr,138 × 10^2 /mm^3
same,ΔLP activity,[7]; treatment time 72 hr,139 × 10^2 /mm^3
same,isoelectric point,[8],8.9±0.5 pH
same,activity of improving the glucose tolerance,[9],improving the glucose tolerance in mammals
same,EpI activity,[10]; treatment time 0 hr,82.0%
same,EpI activity,[10]; treatment time 24 hr,83.0%
same,EpI activity,[10]; treatment time 48 hr,80.5%
same,EpI activity,[10]; treatment time 72 hr,79.8%
same,EpI activity,[11],85.0%
